# Measurements reported in patent US4855321A, “Antihypercholesterolemic compounds” (Merck & Co., Inc., priority 1988, dated 1989).
# System: HMG-CoA reductase
# Assay: HMG-CoA Reductase Inhibition Assay (in vitro, [14C]HMG-CoA, relative to compactin)
# Format: biochemical, rat (male Holtzman Sprague-Dawley)
# Details: compactin assigned 100; IC50 of test compound compared with that of compactin determined simultaneously; pH 7.2, 40 min, 37° C.; lactone converted in situ to sodium salt of dihydroxy acid
# Method: The intrinsic HMG-CoA reductase inhibition activity of the claimed compounds is measured in the in vitro protocol published in J. Med. Chem., 28, p. 347-358 (1985) and described below:
# Male Holtzman Sprague-Dawley rats (225-250 g) were kept on reversed lighting and fed Purina rat chow containing 3% cholestyramine for 7 days preceding their sacrifice by CO2 asphyxiation. Livers were removed 6 hours into the dark cycle and used immediately to prepare microsomes. […]
# Test compounds or compactin (after first being converted to the sodium salt of their dihydroxy acid form in situ by addition of 1N NaOH (1 equivalent) were added to the assay system in 10-μl volumes at multiconcentration levels. After a 40-minute incubation at 37° C. to ensure the complete lactionization of mevalonic acid to mevalonolactone, 0.2 ml of the mixture was added to an 0.5×5.0 cm column containing 100-200 mesh BioRex 5, chloride form (Bio-Rad), wetted with distilled water, as described by Alberts et al., [J. Proc. Natl. Acad. Sci. U.S.A., 1980, 77, 3957]. The unreacted [^14 C]HMG-CoA was absorbed on the resin and the [^14 C] mevalonolactone was eluted with distilled water (2×1 ml) directly into 7-ml scintillation vials. Five milliliters of Aquasol-2 (New England Nuclear) was added to each vial, and radioactivity was measured in a Packard Tri Carb Prias scintillation counter. […]
structure (smiles),measurement,value
"Cc1cc(C)c(/C=C/[C@H]2C[C@H](O)CC(=O)O2)c(-c2ccc(F)c(CO)c2)c1 (relative stereo) [trans-(E)-6-[2-[4'-fluoro-3'-(hydroxymethyl)-3,5-dimethyl[1,1'-biphenyl]-2-yl]ethenyl]-3,4,5,6-tetrahydro-4-hydroxy-2H-pyran-2-one]",relative potency (intrinsic HMG-CoA reductase inhibitory activity) when compared to compactin at 100,26.5
